# Experimental data: patent publication US20060270589A1, “Carotenoids, carotenoid analogs, or carotenoid derivatives for the treatment of visual disabilities” (priority 2005, published 2006)
# Columns and labels:
# [1] = assay type: physicochemical
# Procedure: (§1) 30.13 mg of 3 was added to 1 mL USP-purified water. The sample was rotated for 2 h and then centrifuged for 5 min. After centrifuging, solid was visible in the bottom of the tube. A 125 μL aliquot of the solution was then diluted to 25 mL. The sample was analyzed by UV/Vis spectroscopy at 436 nm, and the absorbance was compared to a standard curve compiled from four standards of known concentration. The concentration of the original supernatant was calculated to be 2.85 mg/mL and the absorptivity was 36.94 AU mL/cm mg. Slight error may have been introduced by the small size of the original aliquot.
# as §1, with “Next, 30.80” for “30.13”, “8” for “3”, “411” for “436”, “29.27” for “2.85”, “2.90” for “36.94”
# [2] = system: superoxide anion generation from phorbol-ester (PMA)-stimulated PMNs; assay: Direct superoxide anion scavenging by EPR spectroscopy (DEPMPO spin-trap) in isolated human neutrophil assay; assay type: cell-based; conditions: 40% EtOH, 0.1 mM; EtOH vehicle background 5%; listed as lutein diphosphate, sodium salt
# Procedure: Human polymorphonuclear leukocytes (PMNs) were isolated from freshly sampled venous blood of a single volunteer by Percoll density gradient centrifugation as described previously. Briefly, each 10 mL of whole blood was mixed with 0.8 mL of 0.1 M EDTA and 25 mL saline. The diluted blood was then layered over 9 mL Percoll at a specific density of 1.080 g/mL. After centrifugation at 400 g for 20 min at 20° C., the plasma, mononuclear cell, and Percoll layers were removed. Erythrocytes were subsequently lysed by addition of 18 mL ice-cold water for 30 s, followed by 2 mL of 10× PIPES buffer (25 mM PIPES, 110 mM NaCl, and 5 mM KCl, titrated to pH 7.4 with NaOH). […] Afterward, PMNs were counted by light microscopy on a hemocytometer. […]
# All EPR measurements were performed using a Bruker ER 300 EPR spectrometer operating at X-band with a TM110 cavity as previously described. The microwave frequency was measured with a Model 575 microwave counter (EIP Microwave, Inc., San Jose, Calif.). […]
# Instrument settings used in the spin-trapping experiments were as follows: modulation amplitude, 0.32 G; time constant, 0.16 s; scan time, 60 s; modulation frequency, 100 kHz; microwave power, 20 mW; and microwave frequency, 9.76 GHz. The samples were placed in a quartz EPR .at cell, and spectra were recorded. The component signals in the spectra were identified and quantified as reported previously.
substance,measurement,setting,value
"3,3′-Diphosphoryloxy-β,ε-carotene sodium salt [Compound 8]",Increase in aqueous dispersibility versus the disuccinate sodium salt,[1],> 10 fold
same,Mean (% inhibition) of superoxide anion signal,[2],(mean % inhibition = 18%) was increased above background scavenging (5%)
